Results: US7858349B2, “Anti-cancer compounds” (The Regents of the University of Colorado, priority 1999, dated 2010)

Tests used:
SCLC strain SHP-77 = assay: MTT assay for cell survival, SCLC SHP-77 in vitro; assay type: cell-based, human; conditions: ED50 for killing of SCLC strain SHP-77 in vitro, 4 days, 0 = no detectable activity, read-out: SCLC SHP-77 IC50
A549 NSCLC cells = assay: Inhibition of A-549 tumor growth in vivo in nude mice; design: species or system athymic nude mice; conditions: percent inhibition of tumor growth in nude mice; i.p. 5 mg/kg/every second day or 10 mg/kg/every fourth day
Method: (§1) Compounds having high in vitro cytotoxic activity were tested against implanted tumors in vivo. Athymic nude mice were implanted subcutaneously with suspensions (2 million SHP-77 SCLC cells, 1 million A549 NSCLC cells or 1.5 million PC3 PC cells) in Matrigel suspension. On the eighth day after tumor implantation groups of 5 mice bearing implants were injected intraperitoneally with the compounds being tested at 5 mg/kg/every second day or at 10 mg/kg/every fourth day; control animals were injected with an equal volume of isotonic saline. Less soluble compounds were initially dissolved in dimethyl sulfoxide (DMSO) and diluted with medium. In those cases the control injections contained the same concentration of DMSO. Tumor size was measured with a caliper three times per week. Tumor volume was calculated by the formula: Volume(cc)=3.14×(length)×(width)^2/6 At autopsy tumors were removed and weighed. Tumor inhibition was calculated on both weight and measurement basis. In each Table, an IC50 value of “0” represents no detectable anti-cancer activity for a drug in a given cell line and “Stim.” indicates the observation of a stimulatory activity on the growth of the cancer cell line.

PC3 PC cells = assay: Inhibition of PC3 tumor growth in vivo in nude mice; design: species or system athymic nude mice; key to PC3 In vivo % inhib.: an IC50 value of “0” represents no detectable anti-cancer activity for a drug in a given cell line; “Stim.” indicates the observation of a stimulatory activity on the growth of the cancer cell line; conditions: for PC3 In vivo % inhib.: percent inhibition of tumor growth in nude mice, prostate cancer, i.p. 5 mg/kg/every second day or 10 mg/kg/every fourth day
Outline: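 Groups of 5 nude mice dosed i.p. at 10 mg/kg every fourth day or 5 mg/kg every second day, beginning 8 days after s.c. implantation of PC3 (1.5 million), A549 (1 million) or SHP-77 (2 million) cells in Matrigel; saline or DMSO-matched controls. Tumor weight at necropsy and caliper-derived volume both used to calculate inhibition.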

NSCLC strain A-549 = assay: MTT assay for cell survival, NSCLC A-549 in vitro; assay type: cell-based, human; conditions: ED50 for killing of NSCLC strain A-549 in vitro, 4 days
SHP-77 SCLC cells = assay: Inhibition of SHP-77 tumor growth in vivo in nude mice; design: species or system athymic nude mice; conditions: 5 mg/kg/every second day or 10 mg/kg/every fourth day
Method: as §1

[1] = system: cultured human cancer cell lines; assay: MTT assay for cell survival, cell line not stated; assay type: cell-based; conditions: 4 days, read-out: concentration causing 50% cell death
implanted tumors = assay: In vivo anti-cancer activity after oral administration; design: species or system nude mice

Molecule	IC50 (SCLC strain SHP-77)	A-549 In vivo % inhib. (A549 NSCLC cells)	PC3 In vivo % inhib. (PC3 PC cells)	IC50 (NSCLC strain A-549)	inhibition of growth of the SCLC line SHP-77 (SHP-77 SCLC cells)	inhibition of PC cell line PC3 tumors (PC3 PC cells; nude mice, 5 mg/kg/every second day or 10 mg/kg/every fourth day)	IC50 [1]	in vivo anti-cancer activity after oral administration (implanted tumors)
CC1(C)CC(NC(=O)C(Cc2ccc(OCc3c(Cl)cccc3Cl)cc2)NC(=O)c2cnccn2)CC(C)(C)N1 (centres unmarked) [Analog M-1368, 2Pyz-OC2Y-Atmp]	3.2 µM	47%	Stim.					
COc1ccc2c(c1)c(CC(=O)NC(Cc1ccc(OCc3c(Cl)cccc3Cl)cc1)C(=O)NC1CC(C)(C)NC(C)(C)C1)c(C)n2C(=O)c1ccc(Cl)cc1 (centres unmarked) [Analog M-1376, Indo-OC2Y-Atmp]	1.5 µM	18%	44%	1.8 µM				
CC(=O)Oc1ccccc1C(=O)NC(Cc1ccc(OCc2c(Cl)cccc2Cl)cc1)C(=O)NC1CC(C)(C)NC(C)(C)C1 (centres unmarked) [Analog M-1378, Aspr-OC2Y-Atmp]	2.9 µM	9%	Stim.	3.5 µM				
CC1(C)CC(NC(=O)C(Cc2ccc(OCc3c(Cl)cccc3Cl)cc2)NC(=O)CCCc2ccc(N(CCCl)CCCl)cc2)CC(C)(C)N1 (centres unmarked) [Analog M-1384, Chl-OC2Y-Atmp]	1.8 µM	46%	Stim.	1.9 µM				
CC1(C)CC(NC(=O)C(Cc2ccc(OCc3c(Cl)cccc3Cl)cc2)NC(=O)C=Cc2cc(F)cc(F)c2F)CC(C)(C)N1 (centres unmarked) [Analog M-1388, F3c-OC2Y-Atmp]	1.6 µM	21%	Stim.					
CC(C(=O)NC(Cc1ccc(OCc2c(Cl)cccc2Cl)cc1)C(=O)NC1CC(C)(C)NC(C)(C)C1)c1cccc(C(=O)c2ccccc2)c1 (centres unmarked) [Analog M-1392, Ktpf-OC2Y-Atmp]	2.9 µM	28%	18%					
CC1(C)CC(NC(=O)C(Cc2ccc(OCc3c(Cl)cccc3Cl)cc2)NC(=O)C2CCn3c(C(=O)c4ccccc4)ccc32)CC(C)(C)N1 (centres unmarked) [Analog M-1394, Ktlc-OC2Y-Atmp]	2.9 µM	68%	Stim.	4.9 µM				
Pentafluorocinnamoyl-O-(2,6-dichlorobenzyl)tyrosine-4-amino-2,2,6,6-tetramethylpiperidine [Analog M570, reference compound]					85%	65%	0.15 µM	active
